Literature values, collected in publication PMC9329312, “Decoding kinase-adverse event associations for small molecule kinase inhibitors” (Nature Communications, 2022).

Conditions: ref FAERS

CCOc1cc2ncc(C#N)c(Nc3ccc(OCc4ccccn4)c(Cl)c3)c2cc1NC(=O)/C=C/CN(C)C [neratinib]
3.4%: Abdominal distension, % of Cases
61.8%: Diarrhoea, % of Cases
6.0%: Abdominal pain upper, % of Cases
25.2%: Fatigue, % of Cases
4.4%: Dyspepsia, % of Cases
0.8%: Blood creatinine increased, % of Cases | Confusional state, % of Cases
1.7%: Blood potassium decreased, % of Cases | Disease progression, % of Cases | Dyspnoea, % of Cases | Flatulence, % of Cases | Illness, % of Cases | Incorrect dose administered, % of Cases
0.75%: Bone pain, % of Cases | Depression, % of Cases | Dysuria, % of Cases | Fall, % of Cases
2.0%: Dry skin, % of Cases
1.0%: Drug intolerance, % of Cases | Hypoaesthesia, % of Cases
2.6%: Adverse drug reaction, % of Cases
5.4%: Headache, % of Cases
0.375%: Arthritis, % of Cases | Breast reconstruction, % of Cases | Cystitis, % of Cases | Eructation, % of Cases | Feeding disorder, % of Cases | Gastroenteritis viral, % of Cases | Haemorrhage, % of Cases | Impaired quality of life, % of Cases
2.3%: Breast cancer metastatic, % of Cases
0.9%: Anxiety, % of Cases | Back pain, % of Cases
0.225%: Ageusia, % of Cases | Aphonia, % of Cases | Ascites, % of Cases | Balance disorder, % of Cases | Bladder spasm, % of Cases | Blood glucose decreased, % of Cases | Blood iron decreased, % of Cases | Blood pressure decreased, % of Cases | Cardiac failure congestive, % of Cases | Clostridium difficile infection, % of Cases | Contusion, % of Cases | Device related infection, % of Cases | Diarrhoea haemorrhagic, % of Cases | Diverticulitis, % of Cases | Early satiety, % of Cases | Electrolyte imbalance, % of Cases | Eye discharge, % of Cases | Faeces pale, % of Cases | Fluid retention, % of Cases | Full blood count abnormal, % of Cases | Gastrointestinal disorder, % of Cases | Glomerular filtration rate decreased, % of Cases | Hyperglycaemia, % of Cases | Intentional dose omission, % of Cases
2.4%: Arthralgia, % of Cases
0.7%: Emergency care, % of Cases | Hospice care, % of Cases | Influenza, % of Cases
2.1%: Drug titration, % of Cases
1.5%: Acne, % of Cases | Feeling abnormal, % of Cases | Hepatic enzyme increased, % of Cases
4.8%: Abdominal discomfort, % of Cases
1.2%: Epistaxis, % of Cases | Insomnia, % of Cases
11.9%: Decreased appetite, % of Cases
0.6%: Acute kidney injury, % of Cases | Alanine aminotransferase increased, % of Cases | Anaemia, % of Cases | Blood pressure increased, % of Cases | Chest pain, % of Cases | Dermatitis acneiform, % of Cases | Haematochezia, % of Cases | Hot flush, % of Cases | Hypotension, % of Cases | Infection, % of Cases
0.5%: Alopecia, % of Cases | Chills, % of Cases | Dysphagia, % of Cases | Erythema, % of Cases | Gait disturbance, % of Cases | Gastrointestinal sounds abnormal, % of Cases | Heart rate increased, % of Cases | Hypersensitivity, % of Cases
4.1%: Asthenia, % of Cases
15.5%: Constipation, % of Cases
4.6%: Dizziness, % of Cases
9.6%: Death, % of Cases
6.2%: Abdominal pain, % of Cases
5.3%: Hospitalisation, % of Cases
2.7%: Dry mouth, % of Cases | Gastrooesophageal reflux disease, % of Cases
0.075%: Abdominal neoplasm, % of Cases | Abdominal pain lower, % of Cases | Acute respiratory failure, % of Cases | Adrenal mass, % of Cases | Adrenocortical insufficiency acute, % of Cases | Adverse event, % of Cases | Amenorrhoea, % of Cases | Anal cancer metastatic, % of Cases | Anal fissure, % of Cases | Anal incontinence, % of Cases | Anal inflammation, % of Cases | Anger, % of Cases | Animal bite, % of Cases | Animal scratch, % of Cases | Aphasia, % of Cases | Aphthous ulcer, % of Cases | Aplastic anaemia, % of Cases | Appendicitis perforated, % of Cases | Aspergillus infection, % of Cases | Asthenopia, % of Cases | Astigmatism, % of Cases | Atrial fibrillation, % of Cases | Bacterial infection, % of Cases | Biliary cirrhosis, % of Cases | Bladder dilatation, % of Cases | Blood calcium decreased, % of Cases | Blood creatinine abnormal, % of Cases | Blood glucose fluctuation, % of Cases | Blood glucose increased, % of Cases | Blood pressure abnormal, % of Cases | Blood urea nitrogen/creatinine ratio increased, % of Cases | Bone cancer, % of Cases | Bowel movement irregularity, % of Cases | Brain natriuretic peptide increased, % of Cases | Brain neoplasm malignant, % of Cases | Brain oedema, % of Cases | Breast calcifications, % of Cases | Breast disorder, % of Cases | Breast haemorrhage, % of Cases | Breast swelling, % of Cases | Brief resolved unexplained event, % of Cases | Bronchitis, % of Cases | Bundle branch block left, % of Cases | Cachexia, % of Cases | Cancer pain, % of Cases | Carbohydrate antigen 15-3 increased, % of Cases | Cardiac disorder, % of Cases | Cardiac operation, % of Cases | Cardio-respiratory arrest, % of Cases | Catatonia, % of Cases | Cellulitis staphylococcal, % of Cases | Central nervous system haemorrhage, % of Cases | Central venous catheter removal, % of Cases | Central venous catheterisation, % of Cases | Cerebral cyst, % of Cases | Chapped lips, % of Cases | Chest wall tumour, % of Cases | Cholangiocarcinoma, % of Cases | Cholecystectomy, % of Cases | Cholecystitis, % of Cases | Chronic fatigue syndrome, % of Cases | Chronic hepatic failure, % of Cases | Clostridium difficile colitis, % of Cases | Coagulopathy, % of Cases | Colectomy, % of Cases | Colitis ulcerative, % of Cases | Coma, % of Cases | Completed suicide, % of Cases | Condition aggravated, % of Cases | Conjunctivitis, % of Cases | Critical illness, % of Cases | Cyst, % of Cases | Deafness bilateral, % of Cases | Deep vein thrombosis, % of Cases | Dementia, % of Cases | Dental operation, % of Cases | Dermatitis contact, % of Cases | Diabetic ketoacidosis, % of Cases | Diplegia, % of Cases | Diplopia, % of Cases | Discomfort, % of Cases | Disorientation, % of Cases | Disturbance in attention, % of Cases | Drug eruption, % of Cases | Drug hypersensitivity, % of Cases | Drug interaction, % of Cases | Dry throat, % of Cases | Dysarthria, % of Cases | Dysphemia, % of Cases | Dyspnoea exertional, % of Cases | Dysstasia, % of Cases | Ear pain, % of Cases | Ecchymosis, % of Cases | Eczema, % of Cases | Electrocardiogram QT prolonged, % of Cases | Energy increased, % of Cases | Enteritis, % of Cases | Eosinophil count increased, % of Cases | Epinephrine abnormal, % of Cases | Escherichia sepsis, % of Cases | Escherichia urinary tract infection, % of Cases | Exfoliative rash, % of Cases | Eye infection, % of Cases | Eye irritation, % of Cases | Eye pain, % of Cases | Eyelid margin crusting, % of Cases | Facial pain, % of Cases | Facial paralysis, % of Cases | Faecaloma, % of Cases | Faeces discoloured, % of Cases | Faeces hard, % of Cases | Failure to thrive, % of Cases | Febrile neutropenia, % of Cases | Fibromyalgia, % of Cases | Flank pain, % of Cases | Flushing, % of Cases | Food aversion, % of Cases | Food craving, % of Cases | Food poisoning, % of Cases | Fracture, % of Cases | Frustration tolerance decreased, % of Cases | Fungal infection, % of Cases | Furuncle, % of Cases | Gait inability, % of Cases | Gastric cancer stage IV, % of Cases | Gastric dilatation, % of Cases | Gastric neoplasm, % of Cases | Gastric ulcer haemorrhage, % of Cases | Gastroenteritis norovirus, % of Cases | Gastroenteritis, % of Cases | Gastrointestinal haemorrhage, % of Cases | Gastrointestinal infection, % of Cases | Gastrointestinal perforation, % of Cases | Gastrostomy, % of Cases | Gingival bleeding, % of Cases | Gingivitis, % of Cases | Glossodynia, % of Cases | Glycosylated haemoglobin increased, % of Cases | Gout, % of Cases | Groin pain, % of Cases | Haematocrit decreased, % of Cases | Haemoglobin abnormal, % of Cases | Haemorrhoidal haemorrhage, % of Cases | Hair growth rate abnormal, % of Cases | Hair texture abnormal, % of Cases | Hallucination, % of Cases | Head and neck cancer, % of Cases | Head discomfort, % of Cases | Heart rate decreased, % of Cases | Helicobacter infection, % of Cases | Hepatic cyst, % of Cases | Hepatic enzyme abnormal, % of Cases | Hepatic function abnormal, % of Cases | Hepatic steatosis, % of Cases | Hepatomegaly, % of Cases | Hepatotoxicity, % of Cases | Hernia, % of Cases | Hip arthroplasty, % of Cases | Human epidermal growth factor receptor negative, % of Cases | Hydrocephalus, % of Cases | Hyperbilirubinaemia, % of Cases | Hyperhidrosis, % of Cases | Hypersomnia, % of Cases | Hypogeusia, % of Cases | Hypomagnesaemia, % of Cases | Hyponatraemia, % of Cases | Hypophosphataemia, % of Cases | Hypovolaemia, % of Cases | Impaired driving ability, % of Cases | Implantable defibrillator insertion, % of Cases | Incision site abscess, % of Cases | Incorrect dosage administered, % of Cases | Increased appetite, % of Cases | Infrequent bowel movements, % of Cases | Intensive care, % of Cases | Intervertebral disc protrusion, % of Cases | Intestinal haemorrhage, % of Cases | Intestinal obstruction, % of Cases
0.15%: Abdominal tenderness, % of Cases | Abnormal faeces, % of Cases | Abscess, % of Cases | Accidental overdose, % of Cases | Amnesia, % of Cases | Appendicitis, % of Cases | Appetite disorder, % of Cases | Asthma, % of Cases | Blister, % of Cases | Blood alkaline phosphatase increased, % of Cases | Blood bilirubin increased, % of Cases | Blood electrolytes decreased, % of Cases | Blood sodium decreased, % of Cases | Blood urine present, % of Cases | Brain cancer metastatic, % of Cases | Brain operation, % of Cases | Breast cancer, % of Cases | Breast cellulitis, % of Cases | Breast pain, % of Cases | COVID-19, % of Cases | Candida infection, % of Cases | Cellulitis, % of Cases | Chest discomfort, % of Cases | Cholelithiasis, % of Cases | Chromaturia, % of Cases | Cognitive disorder, % of Cases | Colon cancer, % of Cases | Drug resistance, % of Cases | Duodenal ulcer, % of Cases | Dysphonia, % of Cases | Ear infection, % of Cases | Eating disorder, % of Cases | Ejection fraction decreased, % of Cases | Eye pruritus, % of Cases | Feeling jittery, % of Cases | Haemorrhoids, % of Cases | Hair growth abnormal, % of Cases | Hepatic failure, % of Cases | Herpes zoster, % of Cases | Hiccups, % of Cases | Hordeolum, % of Cases | Hyperchlorhydria, % of Cases | Hypertension, % of Cases | Hypoaesthesia oral, % of Cases | Hypophagia, % of Cases | Hypoxia, % of Cases | Hysterectomy, % of Cases | Impaired healing, % of Cases | Intentional product use issue, % of Cases | Intentional underdose, % of Cases
0.45%: Breast cancer stage IV, % of Cases | Drug ineffective, % of Cases | Dysgeusia, % of Cases | Faeces soft, % of Cases | Haemoglobin decreased, % of Cases | Hypokalaemia, % of Cases | Inappropriate schedule of product administration, % of Cases
0.3%: Aspartate aminotransferase increased, % of Cases | Blood magnesium decreased, % of Cases | Blood urea increased, % of Cases | Brain neoplasm, % of Cases | Burning sensation, % of Cases | Cerebrovascular accident, % of Cases | Colitis, % of Cases | Depressed mood, % of Cases | Dry eye, % of Cases | Gastric disorder, % of Cases | Gastritis, % of Cases | Haematemesis, % of Cases | Hepatitis, % of Cases | Influenza like illness, % of Cases
6.6%: Dehydration, % of Cases
1.4%: Cough, % of Cases
